Entries after “also recorded” stand apart in the source; their conditions may differ.
Experiments:
MAM-treated rats = settings: cited from earlier work
[1] = test system: memory-impaired aged (AI) rats; experiment: Radial arm maze task with 2-hr retention interval, acute brivaracetam or seletracetam; type: in vivo, rat; settings: doses 0.0625-4 mg/kg i.p.; repeated measures ANOVA
Protocol: (§1) The radial arm maze experiments used acute administration of seletracetam (0-4 mg/kg), brivaracetam (0-4 mg/kg), or saline vehicle given by intraperitoneal injection (in a volume of 1 ml/kg) 30-40 min prior to test sessions.
A radial arm maze (RAM) task was used to assess effects of acute drug treatment with seletracetam and brivaracetam. This protocol allowed within-subject assessment across drugs at different doses. The radial maze consisted of eight arms projecting from each side of an octagonal center platform, with a food well located at the distal end of each arm. Plexiglas blocks could be positioned to prevent entry into any arm. Extra-maze cues were provided in the room surrounding the maze and illumination was provided by an overhead light.
Pre-training, as described in detail in Chappell et al. Neuropharmacology 37: 481-487, (1998), consisted of habituation, standard win-shift training, and win-shift training with delays interposed between information and memory test phases. Drug treatments began two days after the completion of pre-training. Three arms were blocked at the beginning of each trial (information phase). The identity and configuration of the blocked arms were varied across trials. Food-deprived rats were allowed to retrieve food reward (Kellogg's Froot Loops™ cereal) from the five unblocked arms. […]

[2] = Differential scanning calorimetry / thermogravimetry (DSC, TGA); type: physicochemical; settings: 10° C./min
Protocol: DSC was performed using a Mettler-Toledo DSC3+ differential scanning calorimeter. A tau lag adjustment is performed with indium, tin, and zinc. The temperature and enthalpy are adjusted with octane, phenyl salicylate, indium, tin and zinc. The adjustment is then verified with octane, phenyl salicylate, indium, tin, and zinc. The sample was placed into a hermetically sealed aluminum DSC pan, the weight was accurately recorded, and the sample was inserted into the DSC cell. A weighed aluminum pan configured as the sample pan was placed on the reference side of the cell. The pan lid was pierced prior to sample analysis. The samples were analyzed from −25° C. to 250° C. at 10° C./min.
Thermogravimetric analyses were performed using a Mettler-Toledo TGA/DSC3+ analyzer. Temperature calibration was performed using calcium oxalate, indium, tin, and zinc. The sample was placed in an aluminum pan. The pan was hermetically sealed, the lid was pierced, and the pan was then inserted into the TG furnace. A weighed aluminum pan configured as the sample pan was placed on the reference platform. The furnace was heated under nitrogen. Samples were analyzed from 25° C. to 350° C. at 10° C./min.

[3] = Storage and stress stability of crystalline forms (XRPD); type: physicochemical; settings: for stability under ambient storage: ambient conditions
Protocol: XRPD patterns were collected with a PANalytical X'Pert PRO MPD or a PANalytical Empyrean diffractometer using an incident beam of Cu radiation produced using an Optix long, fine-focus source. An elliptically graded multilayer mirror was used to focus Cu Kα X-rays through the specimen and onto the detector. Prior to the analysis, a silicon specimen (NIST SRM 640e) was analyzed to verify the observed position of the Si 111 peak is consistent with the NIST-certified position. A specimen of the sample was sandwiched between 3-μm-thick films and analyzed in transmission geometry. A beam-stop, short antiscatter extension, and antiscatter knife edge were used to minimize the background generated by air. Sober slits for the incident and diffracted beams were used to minimize broadening from axial divergence. Diffraction patterns were collected using a scanning position-sensitive detector (X'Celerator) located 240 mm from the specimen and Data Collector software v. 5.5.

[4] = Competitive interconversion slurry experiments between crystalline forms (relative thermodynamic stability); type: physicochemical; settings: ambient temperature; Form E also 55° C. and 77° C.
Protocol: Interconversion experiments were performed to identify the most thermodynamically stable anhydrous form of Compound 1 (Table 19). […] The choice of solvent affects the kinetics of polymorph conversion and not the thermodynamic relationship between polymorphic forms.
Various combinations of Forms B, E, F, and Material D were slurried with Form A at ambient and elevated temperatures (for experiments involving Form E). Different solvent systems were used and included a variety of water activities. Saturated solutions were generated and then added to the mixtures composed of approximately equivalent quantities of the forms. The mixtures were slurried for a particular duration of time and the solids harvested and analyzed by XRPD.

aged-impaired rats = experiment: Water maze probe test after chronic brivaracetam (osmotic mini-pumps); type: in vivo, rat; settings: 2 mg/kg/day
Protocol: as §1
Rats were trained and tested in a novel water maze environment to assess the effect of drug treatment. The water maze used here was housed in a different building and was surrounded by curtains with a novel set of patterns relative to the maze used for initial assessment of cognitive status. The training protocol consisted of 6 trials per day for 2 days to locate a submerged escape platform. On each trial, a rat was released in the maze from one of four equally spaced starting positions around the perimeter of the pool. The starting position varied from trial to trial. […] The rat was then removed from the platform and placed in a holding cage for another 40 s before the next trial. Approximately 24 hr after the last training trial, a probe test in the absence of the escape platform was given to assess spatial memory.

[5] = Dynamic vapor sorption (DVS); type: physicochemical; settings: for form recovered after the DVS experiment (XRPD): post DVS
Protocol: Dynamic vapor sorption data was collected on a Surface Measurement System DVS Intrinsic instrument. The samples were not dried prior to analysis. Sorption and desorption data were collected over a range from 5% to 95% RH in 10% RH increments under a nitrogen purge. The equilibrium criteria used for the analyses were 0.001 dm/dt weight change in 5 minutes with a minimum step time of 30 minutes and maximum equilibration time of 180 minutes with a 3-minute data logging interval. Data were not corrected for the initial moisture content of the sample. The samples were identified as having low, limited or significant hygroscopicity based on the definitions in the below table.

For `C#Cc1ccc2c(c1)C(c1ccccc1F)=N[C@H](C)c1c(C(=O)OCC)ncn1-2` [SH-053-2′F—R—CH3], which “number of spontaneously active DA neurons in the ventral tegmental area (VTA)” value (MAM-treated rats; MAM rats, systemic or infused into the ventral HPC) is on record?
The value was “reduces the number of spontaneously active DA neurons”.

And the “increased locomotor response to amphetamine” value (MAM-treated rats; MAM-treated rats)?
The value was “is reduced”.

What about the “cortical-evoked responses of HPC neurons” value (MAM-treated rats; saline-treated and MAM-treated animals) of the same molecule?
The value was “diminished cortical-evoked responses”.

Which “number of errors in the retention phase after the 2-hr delay” value [1] does the source give for `CC[C@@H](C(N)=O)N1C[C@H](C=C(F)F)CC1=O` [seletracetam, (2S)-2-[(4S)-4-(2,2-difluoroethenyl)-2-oxopyrrolidin-1-yl]butanamide] here?
Its value is “significant effect as a function of dose”.

Which “onset of DSC exotherm due to decomposition” value (from here on “onset of DSC exotherm due”) [2] does the source give for `COCc1nnc2n1Cc1c(C#Cc3cnc(OC)s3)ncn1-c1ccc(Cl)cc1-2` [Form C] here?
Its value is 190 °C.

What about the “behaviour upon overnight exposure to 80° C.” value ([3]; 80° C., overnight) of the same molecule?
The value was “desolvate to Form B”.

What about the “stability under ambient storage” value [3] of the same molecule?
Its value is “remain unchanged for 9 weeks”.

With `COCc1nnc2n1Cc1c(C#Cc3cnc(OC)s3)ncn1-c1ccc(Cl)cc1-2` [Form E] as the molecule, how does the “onset of DSC exotherm due” value [2] read?
The value was ~201 °C.

And the “outcome of solvent-mediated interconversion with Form A (relative thermodynamic stability)” value (“outcome … (relative thermodynamic stability)” below) [4]?
Its value is “metastable relative to Form A”.

Which “number of errors in the retention phase after the 2-hr delay” value [1] does the source give for `CCC[C@@H]1CC(=O)N([C@@H](CC)C(N)=O)C1` [brivaracetam, (2S)-2-[(4R)-2-oxo-4-propylpyrrolidin-1-yl]butanamide] here?
Its value is “significant effect as a function of dose”.

What about the “spatial bias for the target quadrant compared to the other control quadrants” value (aged-impaired rats; osmotic mini-pumps, started two weeks before, p=0.010) of the same molecule?
Its value is “significant spatial bias for the target quadrant”.

And the “time in the target quadrant vs vehicle-treated rats” value (aged-impaired rats; p=0.018)?
Its value is “significantly more time in the target quadrant”.

And the “time in the target annulus vs vehicle-treated rats” value (aged-impaired rats; p=0.036)?
Its value is “significantly more time in the target annulus”.

With `COCc1nnc2n1Cc1c(C#Cc3cnc(OC)s3)ncn1-c1ccc(Cl)cc1-2` [Form B] as the molecule, how does the “onset of DSC exotherm due” value [2] read?
Its value is “about 190 °C”.

And the “outcome … (relative thermodynamic stability)” value [4]?
The value was “convert to Form A”.

Which “onset of DSC exotherm due” value [2] does the source give for `COCc1nnc2n1Cc1c(C#Cc3cnc(OC)s3)ncn1-c1ccc(Cl)cc1-2` [Material D] here?
The value was ~174 °C.

And the “outcome … (relative thermodynamic stability)” value [4]?
Its value is “convert to Form A”.

What about the “stability under ambient storage” value [3] of the same molecule?
The value was “Material D still remained”.

Which results are given for `COCc1nnc2n1Cc1c(C#Cc3cnc(OC)s3)ncn1-c1ccc(Cl)cc1-2` [Form A]?
hygroscopicity (DVS isotherm) ([5]; 5% to 95% RH): low hygroscopicity; also recorded: limited hygroscopicity; weight change through the sorption/desorption cycle ([5]; 5% to 95% RH, no hysteresis): ~0.3%; form recovered after the DVS experiment (XRPD) [5]: same as the starting material; onset of DSC exotherm due to decomposition [2]: about 207 °C; outcome of solvent-mediated interconversion with Form A (relative thermodynamic stability) [4]: Form A prevailed for each experiment

With `COCc1nnc2n1Cc1c(C#Cc3cnc(OC)s3)ncn1-c1ccc(Cl)cc1-2` [Form F] as the molecule, how does the “hygroscopicity (DVS isotherm)” value ([5]; 5% to 95% RH) read?
Its value is “limited hygroscopicity”.

And the “weight gain on sorption” value ([5]; from 5-95% RH)?
The value was 1.8%.

What about the “form recovered after the DVS experiment (XRPD)” value [5] of the same molecule?
Its value is “still Form F”.

And the “weight loss upon desorption” value ([5]; significant hysteresis)?
Its value is 1.5%.

What about the “onset of DSC exotherm due” value [2] of the same molecule?
Its value is “above 120 °C”.

What about the “behaviour upon exposure to 100° C.” value ([3]; 100° C.) of the same molecule?
Its value is “does dehydrate”.

What about the “stability under vacuum at ambient temperature” value ([3]; vacuum, ambient temperature) of the same molecule?
The value was “remain unchanged for 5 days”.

From US20220062296A1, “COMBINATIONS OF GABAA ALPHA 5 AGONISTS AND SV2A INHIBITORS AND METHODS OF USING IN THE TREATMENT OF COGNITIVE IMPAIRMENT” (AGENEBIO, INC., priority 2020, published 2022)
